The values that follow come from PubChem BioAssay AID624360 (Broad Institute, 2012).

This test is described as follows: IL-1beta-induced NF-kB reporter signal decrease – LMP1 TES2-inducible cells, luciferase, dry powder, selectivity assay for EBV LMP1 NF-kB inhibitor project, dose response (AID 624360).
Where [1] appears, read: HEK293 IL-1beta-induced NF-kB luciferase reporter (LMP1 TES2-inducible cell line), 16 h.
Where [2] appears, read: HEK293 IL-1beta-induced NF-kB luciferase reporter (LMP1 TES2-inducible cell line), 16 h, at 26 µM (top of the series).

Results filed as inconclusive are left out. The source made the active and inactive calls.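 Rule for the calls: active = fitted curve falls past -35% activity change at a concentration under twice the top valid dose, in every test run; inconclusive = test runs disagree, some active and some inactive; inactive = all test runs inactive, including signal rising instead of falling.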

As to `COc1ccc2nc(Nc3nc(C)c(CCC(C)C)c(=O)[nH]3)nc(C)c2c1`, the AC35 under setting [1] was 2720 nM.

For `C[C@@H]1CN([C@@H](C)CO)C(=O)c2cc(NC(=O)Nc3ccc4c(c3)OCO4)ccc2O[C@H]1CN(C)CC1CCCCC1`, the AC35 under setting [1] is 2700 nM.

Turning to `Cc1cc(NC(=O)c2ccc3c(c2)OCCO3)no1`, the AC35 under setting [1] was 111000 nM.

As for `CC(C)=CCN(C(=O)C#Cc1ccccc1)[C@H](CO)c1ccccc1`, the AC35 under setting [1] was 2500 nM.

Turning to `C/C(=N\NC(=S)N1CC2CCC(CC2)C1)c1cnccn1`, the AC35 under setting [1] is 86.2 nM.

As for `C/C(=N\NC(=S)N1CCCC1)c1ccccn1`, the AC35 under setting [1] is 156 nM.

For `O=c1[nH]c(Nc2nc3ccccc3o2)nc2c1CCCC2`, under setting [1], the AC35 is 107000 nM.

Take `Cc1ccc(NC(=O)C2CCN(S(=O)(=O)c3ccc4c(c3)NC(=O)C(C)S4)CC2)cc1Cl` (centres undefined): under setting [1], the AC35 is 3670 nM.

As to `C/C(=N\NC(=S)N1CCCCCC1)c1ccccn1`, the AC35 under setting [1] is 213 nM.

Turning to `Cc1c(NC(=O)c2cccc(NC(=O)COc3ccccc3C#N)c2)c(=O)n(-c2ccccc2)n1C`, the activity change, negative = inhibition under setting [2] is 14.8% (inactive).

As for `Cc1ccc(S(=O)(=O)Nc2ccc3c(c2)C(=O)N([C@@H](C)CO)C[C@H](C)[C@@H](CN(C)C(=O)CCC(F)(F)F)OCCCC[C@H](C)O3)cc1`, the AC35 under setting [1] is 488 nM.

For `Fc1ccc2c(c1)c1nnc(SCCN3CCOCC3)nc1n2Cc1ccccc1`, the AC35 under setting [1] is 4490 nM.

Turning to `COc1ccccc1[C@]1(C)ON(c2ccccc2C(F)(F)F)C1=O`, the AC35 under setting [1] is 8170 nM.

Take `c1ccc(-c2cn3c4c(sc3n2)CCCC4)cc1`: the activity change, negative = inhibition under setting [2] was 8.88% (inactive).

In the case of `S=C(NCc1ccccn1)N/N=C/c1ccccn1`, the AC35 under setting [1] was 1980 nM.

As for `Nc1ccn([C@@H]2O[C@H](CO)[C@@H](O)C2O)c(=O)n1` (some centres undefined), the AC35 under setting [1] was 15800 nM.

As to `COc1ccc(-c2cc3nc4n(c(=O)c3s2)CCC4)cc1`, under setting [2], the activity change, negative = inhibition was 19.5% (inactive).

Take `C[C@@H]1CCCCO[C@H](CN(C)C(=O)NC2CCCCC2)[C@H](C)CN([C@@H](C)CO)C(=O)c2cc(NC(=O)C3CCCCC3)ccc2O1`: the AC35 under setting [1] was 11700 nM.

For `CCc1sc(C(=O)Nc2ncccc2O)cc1C`, the activity change, negative = inhibition under setting [2] was 6.99% (inactive).

For the compound `CC1CN(C(=O)CSc2nnc3c4ccccc4n(Cc4cccc(Cl)c4)c3n2)CCN1C(=O)c1ccccc1F` (centres undefined), the AC35 under setting [1] was 9280 nM.

On to `COc1ccc(C(=O)Nc2ccc3[nH]ccc3c2)cc1`, for which, under setting [2], the activity change, negative = inhibition is 20.3% (inactive).

Consider `C[C@H](CO)N1C[C@H](C)[C@@H](CN(C)Cc2ccc(-c3ccccc3)cc2)Oc2ccc(NC(=O)Nc3cccc4ccccc34)cc2CC1=O`, for which the AC35 under setting [1] was 4640 nM.

For the compound `CCc1ccc(/C=C2\SC(=S)N(CCCC(=O)Nc3ccccn3)C2=O)cc1`, under setting [2], the activity change, negative = inhibition is 40.6% (inactive).

As for `C=C1C[C@]23C[C@@]1(O)CC[C@H]2[C@@]12C=C[C@H](O)[C@@](C)(C(=O)O1)[C@H]2[C@@H]3C(=O)O`, the activity change, negative = inhibition (HEK293 IL-1beta-induced NF-kB luciferase reporter (LMP1 TES2-inducible cell line), 16 h, at 15 µM (top of the series)) was 13.6% (inactive).

For the compound `C[C@H](CO)N1C[C@H](C)[C@H](CN(C)C(=O)Nc2ccc(C(F)(F)F)cc2)OCCCC[C@H](C)Oc2ccc(NC(=O)Nc3ccc(F)cc3)cc2C1=O`, under setting [1], the AC35 is 7850 nM.

In the case of `C/C(=N\NC(=S)Nc1ccccc1)c1ccccn1`, the AC35 under setting [1] was 522 nM.

Regarding `C[C@@H]1CCCCO[C@H](CN(C)CC2CCCCC2)[C@H](C)CN([C@@H](C)CO)C(=O)c2cc(NC(=O)NC3CCCCC3)ccc2O1`, under setting [2], the activity change, negative = inhibition was -0.708% (inactive).

In the case of `CCN1CCN(C(c2cccnc2)c2cc(Cl)c3cccnc3c2O)CC1` (centres undefined), under setting [1], the AC35 was 5660 nM.

Regarding `C[C@@H]1CN([C@@H](C)CO)C(=O)c2cc(NC(=O)Nc3ccc(C(F)(F)F)cc3)ccc2O[C@@H](C)CCCCO[C@H]1CN(C)Cc1ccc(C(F)(F)F)cc1`, under setting [2], the activity change, negative = inhibition is 12.7% (inactive).

On to `CCCSc1nnc2c3ccccc3n(Cc3ccccc3)c2n1`, for which the AC35 under setting [1] was 2610 nM.

For the compound `C/C=C/C/C=C/CCC(=O)[C@H]1O[C@H]1C(N)=O`, under setting [1], the AC35 was 7670 nM.

For the compound `CC12CCC3C(CC=C4CC(O)CCC43CO)C1CCC2OC(=O)c1ccccc1` (centres undefined), for the setting “HEK293, 16 h”, the AC35 was 3880 nM.

On to `C/C(=N\NC(=S)N1CC2CCC(CC2)C1)c1ccccn1`, for which the AC35 under setting [1] is 913 nM.

As to `C=CCN1Cc2ccccc2[C@@H]2OC(c3ccc(OCCCO)cc3)=N[C@]2(CCC(=O)OC(C)(C)C)C1=O`, the activity change, negative = inhibition under setting [2] is 37.8% (inactive).

As to `S=C(N/N=C(\c1ccccc1)c1ccccn1)N(Cc1ccccn1)Cc1ccccn1`, under setting [1], the AC35 is 769 nM.

Turning to `COc1ccc2[nH]c(C(=O)N/N=C/c3ccc(O)cc3O)cc2c1`, under setting [1], the AC35 was 6480 nM.

For the compound `CCC(Sc1nnc2c3ccccc3n(Cc3ccc(Br)cc3)c2n1)C(=O)NCCCN1CCOCC1` (centres undefined), under setting [1], the AC35 was 2710 nM.

In the case of `C[C@@H]1CN([C@@H](C)CO)C(=O)c2cccc(NC(=O)Nc3cccc4ccccc34)c2O[C@H]1CN(C)C(=O)Nc1ccc(C(F)(F)F)cc1`, the AC35 under setting [1] is 11400 nM.

In the case of `C/C(=N\NC(=S)N1CCC1)c1ccccn1`, under setting [1], the AC35 is 287 nM.

`C[C@@H]1CCCCO[C@H](CN(C)S(=O)(=O)c2ccccc2)[C@@H](C)CN([C@@H](C)CO)C(=O)c2cc(N(C)C)ccc2O1`: under setting [2], the activity change, negative = inhibition was 9.13% (inactive).

On to `C[C@H](CO)N1C[C@H](C)[C@@H](CN(C)CC2CC2)OCCCC[C@H](C)Oc2ccc(NC(=O)Nc3cccc4ccccc34)cc2C1=O`, for which, under setting [1], the AC35 is 1130 nM.

Take `O=C1/C(=C/c2ccncc2)SC(=S)N1Cc1ccccc1`: under setting [1], the AC35 was 91500 nM.

Consider `C/C(=N\NC(=S)N1CCCCC1)c1cccc(C)n1`, for which, under setting [1], the AC35 was 343 nM.

In the case of `C/C(=N\NC(=S)N1CCCCC1)c1ccccn1`, the AC35 under setting [1] is 168 nM.
